# Results: the supplement of paper PMC10307832
# What was measured:
# Test in all cases: relative viability (nuclei count vs DMSO), 5 days (fraction); higher = more cells survive
# NCI-H1944 = tested on: NCI-H1944
# In short: (§1)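 Relative viability divides the nuclei count in treated wells by that in vehicle wells. Lung cancer cell lines were seeded in 1536-well plates, dosed by pin tool the next day, and fixed and stained after 5 days in one step with final 0.05% Triton X-100, 1% formaldehyde and 1 ug/ml Hoechst. Dosing was a single drug or a fixed anchor-drug dose plus five library-drug doses (not always all listed) in √10 steps, and values are medians of duplicate plates imaged at 4×.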
# NCI-H1975 = tested on: NCI-H1975
# In short: as §1
# NCI-H1993 = tested on: NCI-H1993
# In short: as §1
# NCI-H2228 = tested on: NCI-H2228
# In short: as §1
# NCI-H3122 = tested on: NCI-H3122
# In short: as §1
# NCI-H520 = tested on: NCI-H520
# In short: as §1
# NCI-H647 = tested on: NCI-H647
# In short: as §1
# NCI-H661 = tested on: NCI-H661
# In short: as §1
# NCI-H838 = tested on: NCI-H838
# In short: as §1
# PC-14 = tested on: PC-14
# In short: as §1
# PC-3 [JPC-3] = tested on: PC-3 [JPC-3]
# In short: as §1
# SK-LU-1 = tested on: SK-LU-1
# In short: as §1
compound,measurement,setting,value
O=C(O)CCCCC(CCSCc1ccccc1)SCc1ccccc1 (configuration not stated) [CPI-613] + COc1cccc2cc(-c3nc([C@H]4CC[C@H](C(=O)O)CC4)n4ncnc(N)c34)[nH]c12 [OSI-027] (partner 0.5 µM),relative viability,NCI-H1944; first compound 158.11 µM,0.274
same,relative viability,NCI-H1944; first compound 500 µM,0.0492
same,relative viability,NCI-H1975; first compound 5 µM,0.693
same,relative viability,NCI-H1975; first compound 15.81 µM,0.589
same,relative viability,NCI-H1975; first compound 50 µM,0.741
same,relative viability,NCI-H1975; first compound 158.11 µM,0.245
same,relative viability,NCI-H1975; first compound 500 µM,0.0526
same,relative viability,NCI-H1993; first compound 5 µM,0.531
same,relative viability,NCI-H1993; first compound 15.81 µM,0.572
same,relative viability,NCI-H1993; first compound 50 µM,0.567
same,relative viability,NCI-H1993; first compound 158.11 µM,0.46
same,relative viability,NCI-H1993; first compound 500 µM,0.375
same,relative viability,NCI-H2228; first compound 5 µM,0.538
same,relative viability,NCI-H2228; first compound 15.81 µM,0.467
same,relative viability,NCI-H2228; first compound 50 µM,0.525
same,relative viability,NCI-H2228; first compound 158.11 µM,0.192
same,relative viability,NCI-H2228; first compound 500 µM,0.072
same,relative viability,NCI-H3122; first compound 5 µM,0.9
same,relative viability,NCI-H3122; first compound 15.81 µM,0.876
same,relative viability,NCI-H3122; first compound 50 µM,0.7
same,relative viability,NCI-H3122; first compound 158.11 µM,0.39
same,relative viability,NCI-H3122; first compound 500 µM,0.045
same,relative viability,NCI-H520; first compound 5 µM,0.268
same,relative viability,NCI-H520; first compound 15.81 µM,0.243
same,relative viability,NCI-H520; first compound 50 µM,0.208
same,relative viability,NCI-H520; first compound 158.11 µM,0.179
same,relative viability,NCI-H520; first compound 500 µM,0.141
same,relative viability,NCI-H647; first compound 5 µM,0.667
same,relative viability,NCI-H647; first compound 15.81 µM,0.498
same,relative viability,NCI-H647; first compound 50 µM,0.445
same,relative viability,NCI-H647; first compound 158.11 µM,0.147
same,relative viability,NCI-H647; first compound 500 µM,0.0299
same,relative viability,NCI-H661; first compound 5 µM,0.684
same,relative viability,NCI-H661; first compound 15.81 µM,0.601
same,relative viability,NCI-H661; first compound 50 µM,0.597
same,relative viability,NCI-H661; first compound 158.11 µM,0.413
same,relative viability,NCI-H661; first compound 500 µM,0.126
same,relative viability,NCI-H838; first compound 5 µM,0.354
same,relative viability,NCI-H838; first compound 15.81 µM,0.335
same,relative viability,NCI-H838; first compound 50 µM,0.301
same,relative viability,NCI-H838; first compound 158.11 µM,0.235
same,relative viability,NCI-H838; first compound 500 µM,0.0809
same,relative viability,PC-14; first compound 5 µM,0.736
same,relative viability,PC-14; first compound 15.81 µM,0.756
same,relative viability,PC-14; first compound 50 µM,0.702
same,relative viability,PC-14; first compound 158.11 µM,0.0567
same,relative viability,PC-14; first compound 500 µM,0.0096
same,relative viability,PC-3 [JPC-3]; first compound 5 µM,0.753
same,relative viability,PC-3 [JPC-3]; first compound 15.81 µM,0.658
same,relative viability,PC-3 [JPC-3]; first compound 50 µM,0.729
same,relative viability,PC-3 [JPC-3]; first compound 158.11 µM,0.517
same,relative viability,PC-3 [JPC-3]; first compound 500 µM,0.276
same,relative viability,SK-LU-1; first compound 5 µM,0.285
same,relative viability,SK-LU-1; first compound 15.81 µM,0.26
same,relative viability,SK-LU-1; first compound 50 µM,0.296
same,relative viability,SK-LU-1; first compound 158.11 µM,0.152
same,relative viability,SK-LU-1; first compound 500 µM,0.0346
